Here are results for 1 compound from patent US20090188496A1, “INHALABLE TIOTROPIUM AND CONTAINER THEREFOR” (Boehringer Ingelheim International GmbH, priority 2003, published 2009).

This data set in a line: In-use stability test of FPD, commercial capsules in opened blister, 40° C. and 75% Rh. The data set is classed as physicochemical. The note with it: conclusion of tests S1-5 and HBS1-3. How it is done: From the blister holding 5 capsules one capsule was withdrawn and the remaining 4 capsules were put 4 days into 40° C. and 75% Rh. The blister containing the 4 capsules was then put in an exicator for 2 h before tests were performed. The test was performed with 4 kPa pressure drop over the […]® at room temperature and laboratory ambient conditions.
From the blister holding 5 capsules one capsule was withdrawn and the remaining 4 capsules were put 13 days into 40° C. and 75% Rh. The blister containing the 4 capsules was then put in an exicator for 2 h before tests were performed. The test was performed with 4 kPa pressure drop over the […]® at room temperature and laboratory ambient conditions.
From the blister holding 5 capsules one capsule was withdrawn and the remaining 4 capsules were put 21 days into 40° C. and 75% Rh. The blister containing the 4 capsules was then put in an exicator for 2 h before tests were performed. The test was performed with 4 kPa pressure drop over the […]® at room temperature and laboratory ambient conditions.

Each structure is given as a SMILES string.

Turning to `C[N+]1(C)[C@@H]2C[C@@H](OC(=O)C(O)(c3cccs3)c3cccs3)C[C@H]1[C@@H]1O[C@@H]12` [tiotropium], the “Sensitivity of FPD to moisture” value is “extremely sensitive to moisture”.
